Details: Liquid

CCCCCCCCCCCCCC(=O)OC [methyl tetradecanoate]
Details	vapor or sublimation pressure [kPa]
302.71 K	0.0001132
305.3 K	0.0001501
306.14 K	0.0001656
307.76 K	0.0001949
308.58 K	0.0002142
310.23 K	0.0002542
311.21 K	0.0002813
312.71 K	0.0003264
313.7 K	0.0003625
315.17 K	0.0004199
316.16 K	0.0004655
317.65 K	0.0005357
318.63 K	0.0005914
320.12 K	0.0006862
321.26 K	0.0007623
322.58 K	0.0008688
323.72 K	0.0009621
325.2 K	0.001105
326.19 K	0.001216
327.67 K	0.001391
328.66 K	0.001519
330.13 K	0.001743
331.13 K	0.001907
332.6 K	0.002171
333.6 K	0.002378
335.34 K	0.002751
336.07 K	0.002936
337.83 K	0.00341
338.55 K	0.003626
340.31 K	0.004207
341.01 K	0.00447
342.8 K	0.005171
343.48 K	0.005466
345.28 K	0.006333
345.96 K	0.006695
347.76 K	0.007722
348.43 K	0.008134
350.25 K	0.009383
350.91 K	0.009867
352.73 K	0.01136
355.48 K	0.01397
357.96 K	0.0168
360.44 K	0.02019
362.92 K	0.02417
365.4 K	0.02884
367.85 K	0.0341
370.34 K	0.0405
372.83 K	0.04791
375.44 K	0.05668
377.92 K	0.06667
380.41 K	0.0782
382.89 K	0.09144
385.37 K	0.1068
387.86 K	0.1243
390.36 K	0.1443
393.01 K	0.1685
395.5 K	0.1947
397.98 K	0.2245
400.45 K	0.2582
402.96 K	0.297
405.45 K	0.3402
407.93 K	0.3881
410.41 K	0.4428
412.89 K	0.5045
415.45 K	0.5764
417.93 K	0.6527
420.4 K	0.7365
422.88 K	0.8323

Transpiration method
Details	vapor or sublimation pressure [kPa]
303.05 K	0.000126
304.65 K	0.000152
306.05 K	0.000172
309.15 K	0.000236
311.15 K	0.00032
313.15 K	0.00039
316.25 K	0.000485
319.25 K	0.000631
322.05 K	0.000891
325.05 K	0.00116
328.25 K	0.00151
331.05 K	0.0019
333.05 K	0.00252
333.15 K	0.00233
334.95 K	0.00275
338.05 K	0.00359
340.05 K	0.00416
343.05 K	0.00536
344.95 K	0.00629
348.05 K	0.00758
350.15 K	0.00963
353.05 K	0.0111
355.15 K	0.0133
358.05 K	0.0168
360.05 K	0.02
363.05 K	0.0242

— the NIST ThermoML archive (doi:10.1016/j.jct.2019.01.007)
